US9834754B2, “Populations of hematopoietic progenitors and methods of enriching stem cells therefor” (University Health Network, priority 2011, dated 2017)

Columns and labels:
[1] = test system: phospho-SMAD2 (Activin/nodal signaling); assay: Western blot / densitometry of phospho-Smad2 in day 2 EBs; format: cell-based, human; settings: 30 minutes treatment, FIG. 4B
Excerpt: Thirty minutes after the addition of DMSO, Activin A, and/or SB at day 2 of differentiation, wells were harvested and lysed on ice using RIPA buffer. Proteins were separated by SDS-PAGE, transferred onto nitrocellulose membranes and probed overnight with Smad2 (Cell Signaling, 1:1000) and phospho-Smad2 antibodies (Millipore, 1:1000, […]/467). Membranes were scanned using the LI-COR Biosciences Odyssey imaging system.

[2] = test system: CD34+CD43− cells isolated from Activin A induced or SB-treated EBs; assay: T lymphoid precursor frequency analysis (limiting dilution assay on OP9-DL4 cells); format: cell-based, human; settings: limiting dilution analyses, day 9 CD34+ population
Protocol: (§1) The hESC line H1 (Thomson et al., 1998) and the reprogrammed human iPS cell line (MSC-iPS1; (Park et al., 2008)) were used in this study. They were maintained on irradiated mouse embryonic fibroblasts in hESC media as described previously (Kennedy et al., 2007). Prior to differentiation, the cells were feeder-depleted by culturing on matrigel (BD Biosciences, Bedford, Mass.) in hESC media for 24 to 48 hours. To generate EBs, hPSCs were treated with collagenase B (1 mg/ml; Roche, Indianapolis, Ind.) for 20 minutes followed by a short trypsin-EDTA (0.05%) step. Cells were gently scraped with a cell scraper to form small aggregates (10-20 cells). Aggregates were resuspended in StemPro-34 (Invitrogen), supplemented with penicillin/streptomycin (10 ng/mL), L-glutamine (2 mM), ascorbic acid (1 mM), monothioglycerol (MTG, 4×10^−4M; Sigma), and transferrin (150 μg/mL). […]
Limiting dilution assays (LDA) of CD34+CD43− cells isolated from either Activin A induced or SB-treated EBs were performed by serial dilutions. […] The presence of CD45+CD7+CD43+CD5+ cells was scored. Progenitor frequencies were determined by the method of maximum likelihood applied to the Poisson model (Groth, 1982).

[3] = test system: CD34+ population isolated from EBs; assay: RT-qPCR expression analysis of CD34+ fractions from day 9 EBs; format: cell-based, human; settings: FIG. 4E
Protocol: Total RNA was prepared with the RNAqueous RNA Isolation Kit (Ambion) and treated with RNase-free DNase (Qiagen). 100 ng to 1 ug RNA was transcribed into cDNA using random hexamers and Oligo (dT) with Superscript III Reverse Transcriptase (Invitrogen). Real-time quantitative PCR was performed on a MasterCycler EP RealPlex (Eppendorf). All experiments were carried out in triplicate using SYBR Green JumpStart Taq ReadyMix (Sigma). The oligonucleotide sequences are available upon request. Gene expression was evaluated as DeltaCt relative to control (ACTB).

[4] = test system: day 9 CD34+ progenitors; assay: OP9-DL4 co-culture for T-lineage differentiation; format: cell-based, human; settings: cultured on OP9-DL4 cells; FIG. 5A
Protocol: OP9 cells retrovirally-transduced to express Delta-like 4 (OP9-DL4) were generated and maintained in α-MEM medium supplemented with penicillin/streptomycin and 20% FBS (OP9 media) as previously described (La Motte-Mohs et al., 2005; Schmitt et al., 2004). 5-10×10^4 sorted human EB-derived subsets were added to individual wells of a 6-well plate containing OP9-DL4 cells, and cultured in OP9-media supplemented with rhFlt-3L (5 ng/mL) and rhIL-7 (5 ng/mL), (Peprotech, Rocky Hill, N.J.). rhSCF (100 ng/mL) was added for the first 8 days only, Every five days co-cultures were transferred onto fresh OP9-DL4 cells by vigorous pipetting and passaging through a 40 μm cell strainer to remove stromal cells.

[5] = test system: iPSC line MSC-iPS1; assay: Hematopoietic differentiation of hiPSCs (flow cytometry and colony assay); format: cell-based, human; settings: SB added between days 2 to 4; hiPSC; FIG. 7
Protocol: as §1, with “cells).” for “cells). Aggregates were resuspended in StemPro-34 (Invitrogen), supplemented with penicillin/streptomycin (10 ng/mL), L-glutamine (2 mM), ascorbic acid (1 mM), monothioglycerol (MTG, 4×10^−4M; Sigma), and transferrin (150 μg/mL).”
The following antibodies were used for these studies: CD3-APC (clone UCHT1), CD4-APC-EFluor750 (clone RPA-T4), CD5-PE-Cy7 (clone L17F12), CD7-FITC (clone M-T701), CD8-eFluor-650 NC (clone RPA-T8), CD31-FITC (clone WM59), CD33-FITC (clone HIM 3-4), CD34-APC (clone 8G12), CD34-PE-CY7 (clone 4H11), CD41-APC (clone HIP8), CD42b-PE (clone HIP1), CD43-PE (clone 1G10), CD45-APC-eFluor750 (clone 2D1) or CD45-PacificBlue (clone H130), CD56-PE-Cy7 (clone B159), CD90-APC (clone 5E10), CD117-APC (clone 104D2), CD144-PE (clone 123413), KDR-PE (clone 89106), TCRγδ-FITC (clone 11F2), TCRαβ-PE (clone T10B9.1A-31). Stained cells were analyzed using an LSRII (BD Biosciences) flow cytometer at the indicated time points. […]

[6] = test system: other pathways or kinases including BMP4, ERK, JNK or p38 MAPK; settings: Inman, 2002; cited from earlier work
[7] = test system: H1 hESCs differentiated as embryoid bodies (EBs); assay: Hematopoietic colony assay of hESC-derived EBs; format: cell-based, human; settings: for erythroid progenitors in day 13 EBs: treatment between days 2 and 4 of differentiation, Activin A at increasing concentrations
Protocol: The hESC line H1 (Thomson et al., 1998) and the reprogrammed human iPS cell line (MSC-iPS1; (Park et al., 2008)) were used in this study. They were maintained on irradiated mouse embryonic fibroblasts in hESC media as described previously (Kennedy et al., 2007). Prior to differentiation, the cells were feeder-depleted by culturing on matrigel (BD Biosciences, Bedford, Mass.) in hESC media for 24 to 48 hours. To generate EBs, hPSCs were treated with collagenase B (1 mg/ml; Roche, Indianapolis, Ind.) for 20 minutes followed by a short trypsin-EDTA (0.05%) step. Cells were gently scraped with a cell scraper to form small aggregates (10-20 cells). Aggregates were resuspended in StemPro-34 (Invitrogen), supplemented with penicillin/streptomycin (10 ng/mL), L-glutamine (2 mM), ascorbic acid (1 mM), monothioglycerol (MTG, 4×10^−4M; Sigma), and transferrin (150 μg/mL). BMP-4 (10 ng/mL), bFGF (5 ng/mL), Activin A, 6 μM SB-431542, VEGF (15 ng/mL), Dkk (150 ng/mL), IL-6 (10 ng/mL), IGF-1 (25 ng/mL), IL-11 (5 ng/mL), SCF (50 ng/mL), EPO (2 U/mL final), TPO (30 ng/mL), IL-3 (30 ng/mL) and Flt-3L (10 ng/mL) were added as indicated. Cultures were maintained in a 5% CO2/5% O2/90% N2 environment for the first 8 days and then transferred to a 5% CO2/air environment. All recombinant factors are human and were purchased from R&D Systems (Minneapolis, Minn.).
Analysis of hematopoietic colony potential was performed by plating either 5×103-2.5×10^4 sorted cells or 2.5×104-5.0×104 unfractionated EB populations in 1% methylcellulose containing specific cytokines as described in detail previously (Kennedy et al., 2007). Colonies consisting of erythroid, erythroid/myeloid and myeloid (either macrophage or mast cell) cells were quantified after 10-14 days.

[8] = test system: CD34+CD43− populations; assay: OP9-DL1 co-culture for erythroid/myeloid differentiation followed by colony assay; format: cell-based, human; settings: 7 days of co-culture on OP9-DL1; FIG. 6C
Protocol: Sorted cells were cultured at a concentration of 2×10^4 cells per well on irradiated OP9-DL1 monolayers in OP9 media with VEGF (5 ng/mL), TPO (30 ng/mL), SCF (50 ng/mL), Flt3 (10 ng/mL), IL-11 (5 ng/mL), and BMP-4 (10 ng/mL) in 24-well plates for 7 days. Cells were harvested as above. Analysis of hematopoietic colony potential was performed by plating either 5×103-2.5×10^4 sorted cells or 2.5×104-5.0×104 unfractionated EB populations in 1% methylcellulose containing specific cytokines as described in detail previously (Kennedy et al., 2007). Colonies consisting of erythroid, erythroid/myeloid and myeloid (either macrophage or mast cell) cells were quantified after 10-14 days.

[9] = test system: H1 hESCs differentiated as embryoid bodies (EBs); assay: Flow cytometric analysis of surface markers on hESC-derived EBs; format: cell-based, human
Protocol: The hESC line H1 (Thomson et al., 1998) and the reprogrammed human iPS cell line (MSC-iPS1; (Park et al., 2008)) were used in this study. They were maintained on irradiated mouse embryonic fibroblasts in hESC media as described previously (Kennedy et al., 2007). Prior to differentiation, the cells were feeder-depleted by culturing on matrigel (BD Biosciences, Bedford, Mass.) in hESC media for 24 to 48 hours. To generate EBs, hPSCs were treated with collagenase B (1 mg/ml; Roche, Indianapolis, Ind.) for 20 minutes followed by a short trypsin-EDTA (0.05%) step. Cells were gently scraped with a cell scraper to form small aggregates (10-20 cells). Aggregates were resuspended in StemPro-34 (Invitrogen), supplemented with penicillin/streptomycin (10 ng/mL), L-glutamine (2 mM), ascorbic acid (1 mM), monothioglycerol (MTG, 4×10^-4M; Sigma), and transferrin (150 μg/mL). BMP-4 (10 ng/mL), bFGF (5 ng/mL), Activin A, 6 μM SB-431542, VEGF (15 ng/mL), Dkk (150 ng/mL), IL-6 (10 ng/mL), IGF-1 (25 ng/mL), IL-11 (5 ng/mL), SCF (50 ng/mL), EPO (2 U/mL final), TPO (30 ng/mL), IL-3 (30 ng/mL) and Flt-3L (10 ng/mL) were added as indicated. Cultures were maintained in a 5% CO2/5% O2/90% N2 environment for the first 8 days and then transferred to a 5% CO2/air environment. All recombinant factors are human and were purchased from R&D Systems (Minneapolis, Minn.). The following antibodies were used for these studies: CD3-APC (clone UCHT1), CD4-APC-EFluor750 (clone RPA-T4), CD5-PE-Cy7 (clone L17F12), CD7-FITC (clone M-[…]), CD8-eFluor-650 NC (clone RPA-T8), CD31-FITC (clone WM59), CD33-FITC (clone HIM 3-4), CD34-APC (clone 8G12), CD34-PE-CY7 (clone 4H11), CD41-APC (clone HIP8), […]10), CD45-APC-eFluor750 (clone 2D1) or CD45-PacificBlue (clone H130), CD56-PE-Cy7 (clone B159), CD90-APC (clone 5E10), CD117-APC (clone 104D2), CD144-PE (clone 123413), KDR-PE (clone 89106), TCRγδ-FITC (clone 11F2), TCRαβ-PE (clone T10B9.1A-31). Stained cells were analyzed using an LSRII (BD Biosciences) flow cytometer at the indicated time points. Data analysis was performed using FlowJo software. For T lymphoid studies, analyses were carried out by gating on live cells and lack of 6-Diamidino-2-phenylindole (DAPI) uptake, followed by gating on cells expressing CD45. All antibodies were purchased from BD Biosciences (San Diego, Calif.) with the following exceptions: CD8 eFluor-650 NC and CD34-PE-CY7 were purchased from eBioscience (San Diego, Calif.) and KDR was purchased from R&D systems. Cells were sorted with […] (BD) cell sorter at the Sick Kids/UHN Flow Cytometry Facility.

[10] = inhibition between days 2 and 4, FIG. 4C

| Molecule | levels of phospho-SMAD2 (densitometry) [1] | frequency of T cell progenitors in SB-treated CD34+ population relative to Activin A-induced CD34+CD43− population [2] | expression of LMO2, GATA1, GATA2 and HOXB4 versus Activin A-induced population [3] | expression of SOX17 and AML1C in CD34+ population versus Activin A-induced CD34+CD43− population [3] | T cell generation from SB-treated day 9 CD34+ progenitors [4] | development of CD41+/CD43+ populations and erythroid and erythroid-myeloid progenitors [5] | inhibition of other pathways or kinases including BMP4, ERK, JNK or p38 MAPK [6] | erythroid progenitors in SB-treated EBs ([7]; any of the timepoints assayed, FIG. 4D) | erythroid progenitors in day 13 EBs ([7]; FIG. 1C) | numbers of erythroid and erythroid-myeloid progenitors versus Activin A-induced progenitors [8] | CD43+ population at day 9 when SB addition delayed until day 3 ([9]; SB added at day 3 of differentiation, FIG. 9) | development of KDR+ and CD34+ populations ([9]; SB added between days 2 and 4 of differentiation) | induction of KDR+CD34+ hematopoietic mesoderm population at day 5 of differentiation ([9]; SB added within the first 24 hours of differentiation, FIG. 4A) | development of the CD43+ population in day 9 EBs [9, 10] | effect on CD34+ cells in day 9 EBs [9, 10] | development of KDR+ cells (mesoderm formation) ([9]; inhibitor added between days 1 and 2 of differentiation) | induction of myeloid and erythroid progenitors ([7]; 0.3 ng/mL Activin A) | myeloid progenitors in day 13 EBs ([7]; increasing concentrations of Activin A, days 2-4, FIG. 1C) |
| --- | --- | --- | --- | --- | --- | --- | --- | --- | --- | --- | --- | --- | --- | --- | --- | --- | --- | --- |
| NC(=O)c1ccc(-c2nc(-c3ccc4c(c3)OCO4)c(-c3ccccn3)[nH]2)cc1 [SB-431542] | significantly reduced | more than 3 fold | comparable | higher levels | generated T cells | inhibited | no observed inhibition | not detected | eliminated almost all erythroid progenitors | significantly higher numbers | development of some CD43^+ cells | developed normally | completely blocked | completely blocked | did not appear to impact | prevented the development of any KDR^+ cells |  |  |
| Activin A: recombinant human factor purchased from R&D Systems, used for hematopoietic induction (protein, UniProt P08476 311-426, looked up) Inhibin beta A chain: GLECDGKVNICCKKQFFVSFKDIGWNDWIIAPSGYHANYCEGECPSHIAGTSGSSLSFHSTVINHYRMRGHSPFANLKSCCVPTKLRPMSMLYYDDGQNIIKKDIQNMIVEECGCS |  |  |  |  |  |  |  |  | increase in erythroid progenitors |  |  |  |  |  |  |  | effectively induced both myeloid and erythroid progenitors | reduction in myeloid progenitors |
